# Source: US9328106B2, “Cyclic ether pyrazol-4-yl-heterocyclyl-carboxamide compounds and methods of use” (Genentech, Inc., priority 2012, dated 2016)
# Biological target: PIM1 (Homo sapiens (Human), UniProt P11309)
# Test: biochemical
# Format: biochemical
# Conditions: not given
# Chain of PIM1 (P11309 whole entry): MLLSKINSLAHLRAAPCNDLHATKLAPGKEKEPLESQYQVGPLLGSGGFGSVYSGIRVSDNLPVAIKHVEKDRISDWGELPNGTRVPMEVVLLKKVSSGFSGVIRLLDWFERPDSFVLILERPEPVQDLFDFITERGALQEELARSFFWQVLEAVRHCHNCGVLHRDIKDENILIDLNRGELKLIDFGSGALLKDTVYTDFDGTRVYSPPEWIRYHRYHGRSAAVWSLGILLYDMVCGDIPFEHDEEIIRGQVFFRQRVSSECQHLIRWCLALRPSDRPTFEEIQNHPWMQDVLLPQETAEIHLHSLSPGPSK
row,SMILES,Ki
1,"Cn1ncc(NC(=O)c2csc(-c3c(F)cc(C(O)C4CC4)cc3F)n2)c1[C@@H]1CC[C@@H](N)[C@H](F)CO1 (stereo partly drawn) [Example 275, N-(5-((2S,5R,6S)-5-amino-6-fluorooxepan-2-yl)-1-methyl-1H-pyrazol-4-yl)-2-(4-(cyclopropyl(hydroxy)methyl)-2,6-difluorophenyl)thiazole-4-carboxamide]",37 pM

# Same assay, conditions: 20 pM PIM1, 1 μM FAM-peptide, 10 μM ATP, 90 minutes at room temperature; read-out: PIM1 LC3K (KI)
row,SMILES,Ki
1,"Cn1ncc(NC(=O)c2csc(-c3c(F)cncc3Cl)n2)c1[C@@H]1CC[C@@H](N)[C@H](F)CO1 [Example 349, N-(5-((2S,5R,6S)-5-amino-6-fluorooxepan-2-yl)-1-methyl-1H-pyrazol-4-yl)-2-(3-chloro-5-fluoropyridin-4-yl)thiazole-4-carboxamide]",3120 pM
2,"CO[C@H]1CO[C@H](c2c(NC(=O)c3nc(-c4cc(Cl)ccc4F)sc3N)cnn2C)CC[C@H]1N [Example 281, 5-amino-N-(5-((2S,5R,6R)-5-amino-6-methoxyoxepan-2-yl)-1-methyl-1H-pyrazol-4-yl)-2-(5-chloro-2-fluorophenyl)thiazole-4-carboxamide]",7 pM
3,"Cn1ncc(NC(=O)c2nc(-c3c(F)cccc3F)sc2N)c1C1C[C@H](N)[C@@H](F)CCO1 (stereo partly drawn) [Example 130, 5-amino-N-(5-((4S,5S)-4-amino-5-fluorooxepan-2-yl)-1-methyl-1H-pyrazol-4-yl)-2-(2,6-difluorophenyl)thiazole-4-carboxamide]",358 pM
4,"COc1cccc(-c2nc(C(=O)Nc3cnn(C)c3[C@@H]3CC[C@@H](N)[C@H](F)CO3)cs2)c1 [Example 357, N-(5-((2S,5R,6S)-5-amino-6-fluorooxepan-2-yl)-1-methyl-1H-pyrazol-4-yl)-2-(3-methoxyphenyl)thiazole-4-carboxamide]",35 pM
5,Cn1ncc(NC(=O)c2csc(-c3c(F)cc(O[C@H]4CCOC4)cc3F)n2)c1[C@@H]1CC[C@@H](N)[C@H](F)CO1 [Example 218],2.24 pM
6,"Cn1ncc(NC(=O)c2nc(-c3ccccc3OC(F)(F)F)sc2N)c1[C@@H]1CC[C@@H](N)[C@H](F)CO1 [Example 157, 5-amino-N-(5-((2S,5R,6S)-5-amino-6-fluorooxepan-2-yl)-1-methyl-1H-pyrazol-4-yl)-2-(2-(trifluoromethoxy)phenyl)thiazole-4-carboxamide]",965 pM
7,"Cn1ncc(NC(=O)c2ccc(F)c(-c3c(F)cc(C4(O)CC4)cc3F)n2)c1[C@@H]1CC[C@@H](N)[C@H](F)CO1 [Example 204, N-(5-((2S,5R,6S)-5-amino-6-fluorooxepan-2-yl)-1-methyl-1H-pyrazol-4-yl)-6-(2,6-difluoro-4-(1-hydroxycyclopropyl)phenyl)-5-fluoropicolinamide]",1 pM
8,"Cn1ncc(NC(=O)c2csc(-c3c(F)ccc(F)c3F)n2)c1[C@@H]1CC[C@@H](N)[C@@H](F)CO1 [Example 230, N-(5-((2S,5R,6R)-5-amino-6-fluorooxepan-2-yl)-1-methyl-1H-pyrazol-4-yl)-2-(2,3,6-trifluorophenyl)thiazole-4-carboxamide]",31 pM
9,"Cn1ncc(NC(=O)c2nc(-c3c(F)cccc3F)sc2N)c1C1OCC(CO)CO1 (stereo not shown) [Example 164, 5-Amino-2-(2,6-difluorophenyl)-N-[5-[5-(hydroxymethyl)-1,3-dioxan-2-yl]-1-methyl-pyrazol-4-yl]thiazole-4-carboxamide]",105 pM
10,"Cn1ncc(NC(=O)c2ccc(F)c(-c3c(F)cc(C4(F)COC4)cc3F)n2)c1[C@@H]1CC[C@@H](N)[C@H](F)CO1 [Example 194, N-(5-((2S,5R,6S)-5-amino-6-fluorooxepan-2-yl)-1-methyl-1H-pyrazol-4-yl)-6-(2,6-difluoro-4-(3-fluorooxetan-3-yl)phenyl)-5-fluoropicolinamide]",22 pM
11,Cn1ncc(NC(=O)c2nc(-c3c(F)cccc3F)sc2N)c1[C@H]1CC[C@H](N)C(F)(F)CO1 [Example 152],31 pM
12,"Cn1ncc(NC(=O)c2csc(-c3cccc(F)c3F)n2)c1[C@@H]1CC[C@@H](N)[C@H](F)CO1 [Example 306, N-(5-((2S,5R,6S)-5-amino-6-fluorooxepan-2-yl)-1-methyl-1H-pyrazol-4-yl)-2-(2,3-difluorophenyl)thiazole-4-carboxamide]",44 pM
13,"Cn1ncc(NC(=O)c2nc(-c3c(F)cccc3F)sc2N)c1[C@H]1CC(F)[C@@H](N)CCO1 (stereo partly drawn) [Example 151, 5-Amino-N-[5-[(2R,5S)-5-amino-4-fluoro-oxepan-2-yl]-1-methyl-pyrazol-4-yl]-2-(2,6-difluorophenyl)thiazole-4-carboxamide]",68 pM
14,"Cn1ncc(NC(=O)c2nc(-c3cccc(F)c3F)sc2N)c1[C@@H]1CC[C@@H](N)[C@@H](F)CO1 [Example 181, 5-Amino-N-[5-[(2S,5R,6R)-5-amino-6-fluoro-oxepan-2-yl]-1-methyl-pyrazol-4-yl]-2-(2,3-difluorophenyl)thiazole-4-carboxamide]",4 pM
15,"Cn1ncc(NC(=O)c2ccc(F)c(-c3c(F)cc(C(C)(C)O)cc3F)n2)c1[C@@H]1CC[C@@H](N)[C@H](F)CO1 [Example 200, N-(5-((2S,5R,6S)-5-amino-6-fluorooxepan-2-yl)-1-methyl-1H-pyrazol-4-yl)-6-(2,6-difluoro-4-(2-hydroxypropan-2-yl)phenyl)-5-fluoropicolinamide]",11 pM
16,"Cn1ncc(NC(=O)c2nc(C3CCCC3)sc2N)c1[C@@H]1CC[C@@H](N)[C@H](F)CO1 [Example 334, 5-amino-N-(5-((2S,5R,6S)-5-amino-6-fluorooxepan-2-yl)-1-methyl-1H-pyrazol-4-yl)-2-cyclopentylthiazole-4-carboxamide]",453 pM
17,"CC[C@]1(CN)CO[C@H](c2c(NC(=O)c3nc(-c4c(F)cccc4F)sc3N)cnn2C)OC1 [Example 173, 5-Amino-N-[5-[5-(aminomethyl)-5-ethyl-1,3-dioxan-2-yl]-1-methyl-pyrazol-4-yl]-2-(2,6-difluorophenyl)thiazole-4-carboxamide]",15 pM
18,"COc1cc(F)c(-c2nc(C(=O)Nc3cnn(C)c3[C@@H]3CC[C@@H](N)[C@@H](F)CO3)ccc2F)c(F)c1 [Example 187, N-(5-((2S,5R,6R)-5-Amino-6-fluorooxepan-2-yl)-1-methyl-1H-pyrazol-4-yl)-6-(2,6-difluoro-4-methoxyphenyl)-5-fluoropicolinamide]",27 pM
19,"COC1(c2cc(F)c(-c3nc(C(=O)Nc4cnn(C)c4[C@@H]4CC[C@@H](N)[C@H](F)CO4)ccc3F)c(F)c2)COC1 [Example 202, N-(5-((2S,5R,6S)-5-amino-6-fluorooxepan-2-yl)-1-methyl-1H-pyrazol-4-yl)-6-(2,6-difluoro-4-(3-methoxyoxetan-3-yl)phenyl)-5-fluoropicolinamide]",56 pM
20,"Cn1ncc(NC(=O)c2csc(-c3cccc(Cl)c3F)n2)c1[C@@H]1CC[C@@H](N)[C@H](F)CO1 [Example 308, N-(5-((2S,5R,6S)-5-amino-6-fluorooxepan-2-yl)-1-methyl-1H-pyrazol-4-yl)-2-(3-chloro-2-fluorophenyl)thiazole-4-carboxamide]",54 pM
21,"Cn1ncc(NC(=O)c2nc(-c3c(F)cccc3F)sc2N)c1[C@H]1OC[C@H](CN)CO1 [Example 167, 5-Amino-N-[5-[5-(aminomethyl)-1,3-dioxan-2-yl]-1-methyl-pyrazol-4-yl]-2-(2,6-difluorophenyl)thiazole-4-carboxamide]",29 pM
22,"Cc1nn(C)cc1-c1nc(C(=O)Nc2cnn(C)c2[C@@H]2CC[C@@H](N)[C@@H](F)CO2)c(N)s1 [Example 254, 5-amino-N-(5-((2S,5R,6R)-5-amino-6-fluorooxepan-2-yl)-1-methyl-1H-pyrazol-4-yl)-2-(1,3-dimethyl-1H-pyrazol-4-yl)thiazole-4-carboxamide]",26 pM
23,"Cn1ncc(NC(=O)c2nc(-c3c(F)cccc3F)sc2N)c1[C@@H]1CC[C@@H](CN)O1 (stereo in doubt) [Example 155, 5-Amino-N-[5-[5-(aminomethyl)tetrahydrofuran-2-yl]-1-methyl-pyrazol-4-yl]-2-(2,6-difluorophenyl)thiazole-4-carboxamide]",104 pM
24,"Cn1ncc(NC(=O)c2nc(-c3c(F)cccc3F)sc2N)c1[C@@H]1C[C@@H](F)[C@H](N)CCO1 (stereo in doubt) [Example 135, 5-amino-N-[5-(5-amino-4-fluoro-oxepan-2-yl)-1-methyl-pyrazol-4-yl]-2-(2,6-difluorophenyl)thiazole-4-carboxamide]",10 pM
25,"Cn1ncc(NC(=O)c2nc(-c3c(F)cccc3F)sc2N)c1C1OCC(CO)CO1 (stereo not shown) [Example 165, 5-Amino-2-(2,6-difluorophenyl)-N-[5-[5-(hydroxymethyl)-1,3-dioxan-2-yl]-1-methyl-pyrazol-4-yl]thiazole-4-carboxamide]",647 pM
26,"C[C@@H]1CC(O)CC[C@H](c2c(NC(=O)c3nc(-c4c(F)cccc4F)sc3N)cnn2C)O1 (stereo partly drawn) [Example 108, 5-amino-2-(2,6-difluorophenyl)-N-(5-((2R,7R)-5-hydroxy-7-methyloxepan-2-yl)-1-methyl-1H-pyrazol-4-yl)thiazole-4-carboxamide]",49 pM
27,"Cn1ncc(NC(=O)c2nc(-c3c(F)cccc3F)sc2N)c1[C@@H]1C[C@H](N)CCO1 [Example 160, 5-Amino-N-[5-[(2S,4R)-4-aminotetrahydropyran-2-yl]-1-methyl-pyrazol-4-yl]-2-(2,6-difluorophenyl)thiazole-4-carboxamide]",248 pM
28,"Cn1ncc(NC(=O)c2nc(-c3c(F)cccc3F)sc2N)c1[C@H]1OC[C@](C)(CN)CO1 [Example 175, 5-Amino-N-[5-[5-(aminomethyl)-5-methyl-1,3-dioxan-2-yl]-1-methyl-pyrazol-4-yl]-2-(2,6-difluorophenyl)thiazole-4-carboxamide]",36 pM
29,"Cc1cccc(F)c1-c1nc(C(=O)Nc2cnn(C)c2[C@@H]2CC[C@@H](N)[C@H](F)CO2)c(N)s1 [Example 330, 5-amino-N-(5-((2S,5R,6S)-5-amino-6-fluorooxepan-2-yl)-1-methyl-1H-pyrazol-4-yl)-2-(2-fluoro-6-methylphenyl)thiazole-4-carboxamide]",16 pM
30,"Cn1ncc(NC(=O)c2csc(-c3cc(Cl)ccc3F)n2)c1[C@@H]1CC[C@@H](N)[C@H](F)CO1 [Example 302, N-(5-((2S,5R,6S)-5-amino-6-fluorooxepan-2-yl)-1-methyl-1H-pyrazol-4-yl)-2-(5-chloro-2-fluorophenyl)thiazole-4-carboxamide]",31 pM
